What follows are compounds tested against T1, acetylcholine muscarinic M1 receptor (hM1) (Homo sapiens, UniProt P11229) (assay: muscarinic FLIPR assay: intracellular calcium in CHOnfat/hM1 cells, potentiation of EC20 acetylcholine). Conditions: Table 1, EC20 acetylcholine (3 nM final), read-out: H Pot.
T1 construct: expressed in transfected cells; host or cells: CHOnfat cells (CHO, NFAT reporter background), Geneticin-selected; b186 also calls them CHOK1/hM1
T1 sequence (P11229 1-460): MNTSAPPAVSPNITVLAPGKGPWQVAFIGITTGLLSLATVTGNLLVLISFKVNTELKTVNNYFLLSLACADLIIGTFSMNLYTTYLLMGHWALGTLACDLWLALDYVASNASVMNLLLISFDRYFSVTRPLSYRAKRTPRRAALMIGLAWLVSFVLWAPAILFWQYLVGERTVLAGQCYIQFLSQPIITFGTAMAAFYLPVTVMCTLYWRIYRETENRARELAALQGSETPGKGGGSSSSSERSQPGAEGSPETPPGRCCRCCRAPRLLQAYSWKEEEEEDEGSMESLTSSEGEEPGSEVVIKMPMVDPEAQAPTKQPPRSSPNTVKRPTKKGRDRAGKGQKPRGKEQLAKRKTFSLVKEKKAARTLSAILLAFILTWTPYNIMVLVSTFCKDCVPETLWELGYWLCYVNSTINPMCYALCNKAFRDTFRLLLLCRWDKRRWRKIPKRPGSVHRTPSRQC
Format: cell-based
Experimental: The assay studies the effect of one or several concentrations of test compounds on basal or acetylcholine-stimulated Ca^2+ levels using FLIPR.
Compounds are prepared and subjected to a preincubation period of 4 min. Thereafter, a single EC20 concentration of acetylcholine is added to each well (3 nM final). The intracellular Ca^2+ level of each sample is measured and compared to an acetylcholine control to determine any modulatory activity.
Cells: CHOnfat/hM1, hM2, hM3 or hM4 cells are plated 24 hr before the assay at a density of 18,000 cells/well (100 μL) in a 384 well plate. CHOnfat/hM1 and CHOnfat/hM3 Growth Medium: 90% DMEM (Hi Glucose); 10% HI FBS; 2 mM L-glutamine; 0.1 mM NEAA; Pen-Strep; and 1 mg/ml Geneticin, are added. For M2Gqi5CHOnfat and M4Gqi5CHOnfat cells, an additional 600 ug/ml hygromycin is added.
Equipment: 384 well plate, 120 μL addition plate; 96-well Whatman 2 ml Uniplate Incubator, 37° C., 5% CO2; Skatron EMBLA-384 Plate Washer; Multimek Pipetting System; Genesis Freedom 200 System; Mosquito System; Temo Nanolitre Pipetting System; and FLIPR^384 Fluorometric Imaging Plate Reader System are used.
Buffers. Assay Buffer: Hanks Balanced Salt Solution, with 20 mM Hepes, 2.5 mM Probenecid (Sigma P-8761) first dissolved in 1 N NaOH, 1% Bovine Serum Albumin (Sigma A-9647). Dye Loading Buffer: Assay Buffer plus 1% Fetal Bovine Serum and Fluo-4AM/Pluronic Acid Mixture. 2 mM Fluo-4AM ester stock in DMSO (Molecular Probes F-14202) Concentration of 2 μM in buffer for a final concentration of 1 μM in Assay. 20% Pluronic Acid Solution stock, with concentration of 0.04% in Buffer, 0.02% in Assay.
65 μL of 2 mM Fluo-4AM are mixed with 130 μL of 20% Pluronic Acid. The resulting solution and 650 μL FBS is added to the assay buffer for a total volume of 65 mL. Positive Controls: 4-Br-A23187: 10 mM in DMSO; final concentration 10 μM. Acetylcholine: 10 mM in water, working stock at both 20 μM and 30 μM in assay buffer, final concentration of 10 μM. This is used to check the maximum stimulation of the CHOK1/hM1 cells. 20 μM (2×) acetylcholine is added in the preincubation part of the assay, and the 30 μM (3×) stock is added in the second part. (EC20) Acetylcholine: 10 mM in water, working stock of 9 nM (3×), and final concentration in assay is 3 nM. This is used after the preincubation with test compounds. Addition of the EC20 Acetylcholine to each well with a test compound will ascertain any modulator activity. 24 wells contain 3 nM Acetylcholine alone as a control.
Screening Plate Compounds are titrated in 96-well plates (columns 2-11), 100% DMSO, started at a concentration of 15 mM (150× stock concentration), and 3-fold serial dilutions using Genesis Freedom200 System. Four 96-well plates are combined into a 384-well plate using Mosquito Nanolitre Pipetting System by transferring 1 μl of serial diluted compounds to each well, and 1 mM acetylcholine (100× stock concentration) were added as a control. Using Temo, 49 μl assay buffer is added to each well of the 384-well plate right before assay.
In a 96-well Whatman 2 ml Uniplate, 9 nM Acetylcholine (3×) is pipetted into wells corresponding to the screening compounds, and into control wells. The 30 μM acetylcholine control (3×) is added into control wells, and the 3× agonist plate is transferred into a 384 well plate.
Cells are washed three times with 100 μL of buffer, leaving 30 μL of buffer in each well. Using Multimek, 30 μL of Dye Loading Buffer is added into each well and incubated at 37° C., 5% CO2 for up to one hr.
After 60 min, the cells are washed three times with 100 μL of buffer, leaving 30 μL of buffer in each well. The cell plate, screening plate, and agonist addition plates are placed on the platform in the FLIPR and the door closed. A signal test to check background fluorescence and basal fluorescence signal is performed. Laser intensity is adjusted if necessary. […]

| EC50 [nM] | SMILES |
| --- | --- |
| 11 | O=C(N[C@H]1CCOC[C@@H]1O)c1cc(Cc2cnc3ccccc3c2)c2c(n1)CCCC2 [Compound 15] |
| 18 | COc1ccc(-c2ccc(Cc3cc(C(=O)N[C@H]4CCCC[C@@H]4O)nc4c3CCCC4)cn2)cn1 [Compound 8] |
| 129 | O=C(N[C@H]1CCCC[C@@H]1O)c1cc(Cc2ccc(Cl)nc2)c2c(n1)CCCC2 [Compound 7] |
| 2240 | CC(=O)N1CCC(Cc2cc(C(=O)N[C@H]3CCOC[C@@H]3O)nc3c2CCCC3)CC1 [Compound 24] |
| 17 | COc1ccc(-c2ccc(Cc3cc(C(=O)N[C@H]4CCOC[C@@H]4O)nc4c3CCCC4)cn2)cn1 [Compound 22] |
| 11 | O=C(N[C@H]1CCOC[C@@H]1O)c1cc(Cc2ccc(-c3cccnc3)nc2)c2c(n1)CCCC2 [Compound 16] |
| 6 | Cc1cncc(-c2ccc(Cc3cc(C(=O)N[C@H]4CCOC[C@@H]4O)nc4c3CCCC4)cn2)c1 [Compound 21] |
| 620 | CC(C)(C)OC(=O)N1CC=C(Cc2cc(C(=O)N[C@H]3CCOC[C@@H]3O)nc3c2CCCC3)CC1 [Compound 23] |
| 26 | O=C(N[C@H]1CCCC[C@@H]1O)c1cc(Cc2ccc(-c3ccccc3)nc2)c2c(n1)CCCC2 [Compound 11] |
| 7 | COc1cncc(-c2ccc(Cc3cc(C(=O)N[C@H]4CCOC[C@@H]4O)nc4c3CCCC4)cn2)c1 [Compound 18] |
| 15 | O=C(N[C@H]1CCCC[C@@H]1O)c1cc(Cc2ccc(-c3cccnc3)nc2)c2c(n1)CCCC2 [Compound 9] |
| 80 | O=C(NC1CCOCC1O)c1cc(Cc2ccn3ccnc3c2)c2c(n1)CCCC2 (stereo not drawn) [Compound 13] |
| 120 | COc1cc(Cc2cc(C(=O)N[C@H]3CCOC[C@@H]3O)nc3c2CCCC3)ccn1 [Compound 12] |
| 23 | O=C(N[C@H]1CCOC[C@@H]1O)c1cc(Cc2ccc(-c3cncc(F)c3)nc2)c2c(n1)CCCC2 [Compound 19] |
| 15 | O=C(N[C@H]1CCOC[C@@H]1O)c1cc(Cc2ccc(-c3ccc(F)nc3)nc2)c2c(n1)CCCC2 [Compound 17] |
| 36 | O=C(N[C@H]1CCCC[C@@H]1O)c1cc(Cc2ccc(-c3ccc(F)nc3)nc2)c2c(n1)CCCC2 [Compound 10] |
| 7 | Cc1ccc(-c2ccc(Cc3cc(C(=O)N[C@H]4CCOC[C@@H]4O)nc4c3CCCC4)cn2)cn1 [Compound 20] |
| 33 | O=C(N[C@H]1CCOC[C@@H]1O)c1cc(Cc2ccnc3ccccc23)c2c(n1)CCCC2 [Compound 14] |

Same assay, conditions: Table 2, EC20 acetylcholine (3 nM final), read-out: M1 IP (inflection point)

| EC50 [nM] | SMILES |
| --- | --- |
| 88 | CSc1ccc(Cc2cc(C(=O)N[C@H]3CCCC[C@@H]3O)nc3c2CCCC3)cn1 [Example 2, N-[(1S,2S)-2-Hydroxycyclohexyl]-4-{[6-(methylsulfanyl)pyridin-3-yl]methyl}-5,6,7,8-tetrahydroquinoline-2-carboxamide] |
| 98 | COc1ccc(Cc2cc(C(=O)N[C@H]3CCOC[C@@H]3O)nc3c2CCCC3)cn1 [Example 3, 1,5-Anhydro-2,3-dideoxy-3-[({4-[(6-methoxypyridin-3-yl)methyl]-5,6,7,8-tetrahydroquinolin-2-yl}carbonyl)amino]-L-threo-pentitol] |
| 102 | O=C(N[C@H]1CCOC[C@@H]1O)c1cc(Cc2ccc(Cl)nc2)c2c(n1)CCCC2 [Example 1, 1,5-Anhydro-3[({4-[(6-chloropyridin-3-yl)methyl]-5,6,7,8-tetrahydroquinolin-2-yl}carbonyl)amino]-2,3-dideoxy-L-threo-pentitol] |
| 4 | Cn1cc(-c2ccc(Cc3cc(C(=O)N[C@H]4CCOC[C@@H]4O)nc4c3CCCC4)cn2)cn1 [Example 5, 1,5-Anhydro-2,3-dideoxy-3-{[(4-{[6-(1-methyl-1H-pyrazol-4-yl)pyridine-3-yl]methyl}-5,6,7,8-tetrahydroquinolin-2-yl)carbonyl}amino]-L-threo-pentitol] |
| 115 | O=C(N[C@H]1CCOC[C@@H]1O)c1cc(Cc2ccc(-c3cnccn3)nc2)c2c(n1)CCCC2 [Example 6, 1,5-Anhydro-2,3-dideoxy-3-{[(4-{[6-(pyrazin-2-yl)pyridine-3-yl]methyl}-5,6,7,8-tetrahydroquinolin-2-yl)carbonyl]amino}-L-threo-pentitol] |
| 654 | CC(=O)N1CC=C(Cc2cc(C(=O)N[C@H]3CCOC[C@@H]3O)nc3c2CCCC3)CC1 [Example 4, 3-[{(4-[(1-Acetyl-1,2,3,6-tetrahydropyridin-4-yl)methyl]-5,6,7,8-tetrahydroquinolin-2-yl}carbonyl)amino]-1,5-anhydro-2,3-dideoxy-L-threo-pentitol] |

From US8815902B2, “Tetrahydroquinoline amide M1 receptor positive allosteric modulators” (Merck Sharp & Dohme Corp., priority 2010, dated 2014)
